Here are results for four molecules from ChEMBL document CHEMBL5380795, “Design, Synthesis, and Bioactivity Investigation of Cyclic Lipopeptide Antibiotics Containing Eight to Nine Amino Acids” (J Med Chem, 2023).

In brackets after ≈: the same amount, converted by molar mass.

Data set [1] is described as follows: Selectivity index, ratio of IC50 for cytotoxicity against human HK-2 cells to MIC for antibacterial activity against Escherichia coli ATCC BAA-2523. It counts as toxicity, cell-based.
Data set [2] has as its system Pseudomonas aeruginosa. The experiment in a line: Antibacterial activity against carbapenem resistant Pseudomonas aeruginosa clinical isolate 17-1 assessed as inhibition of bacterial growth incubated for 18 to 24 hrs by broth microdilution method. In kind it is functional. Conditions: time 18-24 hrs. In general terms: In broth dilution the organism is exposed to a series of concentrations in liquid medium.

Data set [3] concerns Klebsiella pneumoniae. The experiment in a line: Antibacterial activity against carbapenem resistant Klebsiella pneumoniae clinical isolate 19-17 assessed as inhibition of bacterial growth incubated for 18 to 24 hrs by broth microdilution method. It counts as functional. Particulars: time 18-24 hrs.
Data set [4] deals with Pseudomonas aeruginosa. The experiment in a line: Antibacterial activity against Pseudomonas aeruginosa ATCC 27853 assessed as inhibition of bacterial growth incubated for 18 to 24 hrs by broth microdilution method. In kind it is functional. Particulars: time 18-24 hrs.
The subject of data set [5] is Escherichia coli. Description: Antibacterial activity against Escherichia coli NCTC 13353 assessed as inhibition of bacterial growth incubated for 18 to 24 hrs by broth microdilution method. In kind it is functional. Conditions: time 18-24 hrs.
Data set [6] concerns Staphylococcus aureus. The experiment in a line: Antibacterial activity against Staphylococcus aureus ATCC 29213 assessed as inhibition of bacterial growth incubated for 18 to 24 hrs by broth microdilution method. It counts as functional. Particulars: time 18-24 hrs.
Data set [7] in a line: Cytotoxicity against human HK-2 cells assessed as inhibition of cell growth incubated for 72 hrs by CCK-8 assay. It counts as toxicity, cell-based. In general terms: Formazan colour is commonly taken as a measure of viable cells.
Data set [8] relates to Pseudomonas aeruginosa. Description: Antibacterial activity against Pseudomonas aeruginosa clinical isolate 19-1 assessed as inhibition of bacterial growth incubated for 18 to 24 hrs by broth microdilution method. It counts as functional. Particulars: time 18-24 hrs.
The subject of data set [9] is Klebsiella pneumoniae. Description: Antibacterial activity against carbapenem resistant Klebsiella pneumoniae clinical isolate 19-15 assessed as inhibition of bacterial growth incubated for 18 to 24 hrs by broth microdilution method. It counts as functional. Particulars: time 18-24 hrs.
In data set [10] the test system is Staphylococcus aureus. Description: Antibacterial activity against methicillin resistant Staphylococcus aureus ATCC 33591 assessed as inhibition of bacterial growth incubated for 18 to 24 hrs by broth microdilution method. It counts as functional. Conditions: time 18-24 hrs.
For data set [11], the system named is Klebsiella pneumoniae. The experiment in a line: Antibacterial activity against KPC producing Klebsiella pneumoniae ATCC BAA-1705 assessed as inhibition of bacterial growth incubated for 18 to 24 hrs by broth microdilution method. It counts as functional. Particulars: time 18-24 hrs.
The subject of data set [12] is Escherichia coli. Description: Antibacterial activity against Escherichia coli ATCC BAA-2523 assessed as inhibition of bacterial growth incubated for 18 to 24 hrs by broth microdilution method. It counts as functional. Conditions: time 18-24 hrs.
Data set [13] concerns Escherichia coli. The experiment in a line: Antibacterial activity against Escherichia coli clinical isolate 19-2 assessed as inhibition of bacterial growth incubated for 18 to 24 hrs by broth microdilution method. In kind it is functional. Particulars: time 18-24 hrs.
Data set [14] has as its system Acinetobacter baumannii. The experiment in a line: Antibacterial activity against carbapenem resistant Acinetobacter baumannii clinical isolate 19-8 assessed as inhibition of bacterial growth incubated for 18 to 24 hrs by broth microdilution method. In kind it is functional. Particulars: time 18-24 hrs.
Data set [15] deals with Acinetobacter baumannii. The experiment in a line: Antibacterial activity against oxacillinase-27 producing Acinetobacter baumannii NCTC 13304 assessed as inhibition of bacterial growth incubated for 18 to 24 hrs by broth microdilution method. In kind it is functional. Particulars: time 18-24 hrs.
The test system of data set [16] is Pseudomonas aeruginosa. Description: Antibacterial activity against carbapenem resistant Pseudomonas aeruginosa clinical isolate 19-3 assessed as inhibition of bacterial growth incubated for 18 to 24 hrs by broth microdilution method. It counts as functional. Particulars: time 18-24 hrs.
For data set [17], the system named is Staphylococcus epidermidis. Description: Antibacterial activity against methicillin resistant Staphylococcus epidermidis clinical isolate 19-6 assessed as inhibition of bacterial growth incubated for 18 to 24 hrs by broth microdilution method. In kind it is functional. Particulars: time 18-24 hrs.
For data set [18], the system named is Staphylococcus epidermidis. Description: Antibacterial activity against methicillin resistant Staphylococcus epidermidis clinical isolate 19-5 assessed as inhibition of bacterial growth incubated for 18 to 24 hrs by broth microdilution method. Conditions: time 18-24 hrs. It counts as functional.
The subject of data set [19] is Escherichia coli. Description: Antibacterial activity against KPC producing Escherichia coli ATCC BAA-2340 assessed as inhibition of bacterial growth incubated for 18 to 24 hrs by broth microdilution method. In kind it is functional. Particulars: time 18-24 hrs.

Broadly, the MIC is the least concentration at which growth counts as inhibited. A word on the IC50: it is the concentration needed to halve the response being measured.

For `CCCCCCC[C@@H](O)CC(=O)N[C@H](CCN)C(=O)N[C@H]1CCNC(=O)[C@H]([C@@H](C)O)NC(=O)[C@H](CCN)NC(=O)[C@H](CCN)NC(=O)[C@H](CC(C)C)NC(=O)[C@@H](CC(C)C)NC(=O)[C@H](CCN)NC1=O`, the selectivity ratio in data set [1] came out at 51.5. Moreover, the MIC is 0.5 µg/mL (≈ 0.501 µM) in the data set on Pseudomonas aeruginosa [2]; 8 µg/mL (≈ 8.01 µM) in the data set on Klebsiella pneumoniae [3]; 0.5 µg/mL (≈ 0.501 µM) with Pseudomonas aeruginosa [4]; 16 µg/mL (≈ 16 µM) in the data set on Escherichia coli [5]; more than 64 µg/mL with Staphylococcus aureus [6]; 0.5 µg/mL (≈ 0.501 µM) in the data set on Pseudomonas aeruginosa [8]. Further, the MIC in the data set with Klebsiella pneumoniae [9] was 16 µg/mL (≈ 16 µM); with Staphylococcus aureus [10] it was more than 64 µg/mL; in the data set with Klebsiella pneumoniae [11], 2 µg/mL (≈ 2 µM); in the data set on Escherichia coli [12], 4 µg/mL (≈ 4.01 µM); in the data set with Escherichia coli [13], 8 µg/mL (≈ 8.01 µM); with Acinetobacter baumannii [14], 64 µg/mL (≈ 64.1 µM). For the same molecule, the MIC in the data set on Acinetobacter baumannii [15] is 64 µg/mL (≈ 64.1 µM); in the data set with Pseudomonas aeruginosa [16] it was 1 µg/mL (≈ 1 µM); in data set [17] it was 64 µg/mL (≈ 64.1 µM); in data set [18], 16 µg/mL (≈ 16 µM); in the data set with Escherichia coli [19], 8 µg/mL (≈ 8.01 µM). Besides, the IC50 at 72 h in data set [7] is 206 µg/mL (≈ 206 µM).

With `CCCCCCC[C@@H](O)CC(=O)N[C@@H](CCN)C(=O)N[C@H](CCN)C(=O)N[C@H]1CCNC(=O)[C@H](CC(C)C)NC(=O)[C@H](CCN)NC(=O)[C@H](CCN)NC(=O)[C@H](Cc2ccccc2)NC(=O)[C@@H](CC(C)C)NC(=O)[C@H](CCN)NC1=O`, the selectivity ratio in data set [1] stood at 2.3. For the same molecule, the MIC turned out to be 2 µg/mL (≈ 1.75 µM) in the data set with Pseudomonas aeruginosa [2]; 64 µg/mL (≈ 55.9 µM) in the data set with Klebsiella pneumoniae [3]; 2 µg/mL (≈ 1.75 µM) with Pseudomonas aeruginosa [4]; 32 µg/mL (≈ 28 µM) with Escherichia coli [5]; 8 µg/mL (≈ 6.99 µM) in the data set with Staphylococcus aureus [6]; 2 µg/mL (≈ 1.75 µM) in the data set with Pseudomonas aeruginosa [8]. Further, the MIC in the data set on Klebsiella pneumoniae [9] is 32 µg/mL (≈ 28 µM); in the data set with Staphylococcus aureus [10], 16 µg/mL (≈ 14 µM); in the data set with Klebsiella pneumoniae [11] it was 32 µg/mL (≈ 28 µM); in the data set on Escherichia coli [12] it was 8 µg/mL (≈ 6.99 µM); in the data set on Escherichia coli [13] it was 16 µg/mL (≈ 14 µM); in the data set with Acinetobacter baumannii [14], 16 µg/mL (≈ 14 µM). Moreover, the MIC in the data set with Acinetobacter baumannii [15] is 16 µg/mL (≈ 14 µM); in the data set with Pseudomonas aeruginosa [16], 4 µg/mL (≈ 3.5 µM); in data set [17] it was 4 µg/mL (≈ 3.5 µM); in [18], 1 µg/mL (≈ 0.874 µM); in the data set on Escherichia coli [19], 16 µg/mL (≈ 14 µM). Also, in data set [7], the IC50 at 72 h is 18.5 µg/mL (≈ 16.2 µM).

For `CCCCCCC[C@@H](O)CC(=O)N[C@H](CO)C(=O)N[C@H](CCN)C(=O)N[C@H]1CCNC(=O)[C@H](CC(C)C)NC(=O)[C@H](CCN)NC(=O)[C@H](CCN)NC(=O)[C@H](Cc2ccccc2)NC(=O)[C@@H](CC(C)C)NC(=O)[C@H](CCN)NC1=O`, the selectivity ratio in [1] came to 13.9. For the same molecule, the MIC in the data set with Pseudomonas aeruginosa [2] was 2 µg/mL (≈ 1.77 µM); in the data set on Klebsiella pneumoniae [3], 8 µg/mL (≈ 7.07 µM); in the data set with Pseudomonas aeruginosa [4], 2 µg/mL (≈ 1.77 µM); in the data set on Escherichia coli [5] it was 16 µg/mL (≈ 14.1 µM); with Staphylococcus aureus [6] it was 64 µg/mL (≈ 56.6 µM); with Pseudomonas aeruginosa [8], 8 µg/mL (≈ 7.07 µM). Besides, the MIC stood at 4 µg/mL (≈ 3.54 µM) in the data set with Klebsiella pneumoniae [9]; 64 µg/mL (≈ 56.6 µM) with Staphylococcus aureus [10]; 2 µg/mL (≈ 1.77 µM) with Klebsiella pneumoniae [11]; 4 µg/mL (≈ 3.54 µM) in the data set on Escherichia coli [12]; 16 µg/mL (≈ 14.1 µM) with Escherichia coli [13]; 16 µg/mL (≈ 14.1 µM) with Acinetobacter baumannii [14]. Further, the MIC was found to be 8 µg/mL (≈ 7.07 µM) in the data set on Acinetobacter baumannii [15]; 2 µg/mL (≈ 1.77 µM) with Pseudomonas aeruginosa [16]; 8 µg/mL (≈ 7.07 µM) in data set [17]; 2 µg/mL (≈ 1.77 µM) in data set [18]; 4 µg/mL (≈ 3.54 µM) with Escherichia coli [19]. Moreover, the IC50 at 72 h in data set [7] was 55.4 µg/mL (≈ 49 µM).

As for `CCCCCCCCCC(=O)N[C@H](CCN)C(=O)N[C@H]1CCNC(=O)[C@H](CC(C)C)NC(=O)[C@H](CCN)NC(=O)[C@H](CCN)NC(=O)[C@H](CC(C)C)NC(=O)[C@@H](CC(C)C)NC(=O)[C@H](CCN)NC1=O`, in [1], the selectivity ratio worked out at 3.3. The MIC in the data set on Pseudomonas aeruginosa [2] is 2 µg/mL (≈ 2.01 µM); with Klebsiella pneumoniae [3], 16 µg/mL (≈ 16.1 µM); with Pseudomonas aeruginosa [4], 1 µg/mL (≈ 1.01 µM); in the data set on Escherichia coli [5], 16 µg/mL (≈ 16.1 µM); in the data set with Staphylococcus aureus [6] it was 32 µg/mL (≈ 32.2 µM); in the data set on Pseudomonas aeruginosa [8], 2 µg/mL (≈ 2.01 µM). The MIC in the data set on Klebsiella pneumoniae [9] turned out to be 8 µg/mL (≈ 8.05 µM); with Staphylococcus aureus [10], 64 µg/mL (≈ 64.4 µM); with Klebsiella pneumoniae [11], 2 µg/mL (≈ 2.01 µM); in the data set with Escherichia coli [12], 16 µg/mL (≈ 16.1 µM); in the data set on Escherichia coli [13], 16 µg/mL (≈ 16.1 µM); with Acinetobacter baumannii [14] it was 4 µg/mL (≈ 4.02 µM). The MIC with Acinetobacter baumannii [15] worked out at 8 µg/mL (≈ 8.05 µM); with Pseudomonas aeruginosa [16] it was 8 µg/mL (≈ 8.05 µM); in data set [17], 8 µg/mL (≈ 8.05 µM); in data set [18], 2 µg/mL (≈ 2.01 µM); in the data set with Escherichia coli [19], 4 µg/mL (≈ 4.02 µM). The 50% inhibitory concentration (IC50) at 72 h in data set [7] is 53.5 µg/mL (≈ 53.8 µM).
